# In a melting point compilation (Tetko et al.; mined from patent text by program, amines drawn as free bases though some values may be those of a salt):
row,SMILES,melting point [°C]
1,CCCCCCCCCCCCCCCCNC(=O)c1cc(OCCSCC(=O)O)c2ccccc2c1O,91 to 93
2,O=C1OC[C@H]2[C@@H]1N(Cc1ccccc1)C(=O)N2Cc1ccccc1 (relative stereo),106 to 109
3,CCCCCCc1ccc(C(=O)O)cc1[N+](=O)[O-],106 to 108
4,Nc1cc(C(=O)O)cc(SCc2ccsc2)c1Oc1ccccc1,153 to 155
5,CCn1ccc2c(c1=O)CN=C(N1CCNCC1)N2,117 to 120
6,Cc1ccccc1OCc1ccccc1[N+](=O)[O-],83
7,Cc1nc2n(c1CC#N)CCCC2OCc1ccccc1 (stereo not drawn),132 to 134
8,CC1=C(C)C(Cc2csc3ccccc23)N(C)C=C1 (stereo not drawn),185 to 190
9,CC(C)(C)c1cc(C=O)c(O)c(S(=O)(=O)CCl)c1,128 to 129
10,O=C(Nc1ccnnc1)Oc1ccccc1,184 to 185
11,O=C(O)c1cc(C(F)(F)F)ccc1O,149 to 151
12,Cc1c(SCCCSCCO)ccnc1CNc1cnc2ccccc2c1,125 to 126
13,CCN(CC)Cc1ccc(C(N)=O)o1,164 to 165
14,CCN(CC)S(=O)(=O)c1ccc2c(c1)C(C(Cl)(Cl)Cl)OC(C(Cl)(Cl)Cl)O2 (stereo not drawn),125 to 126
15,NC(=O)CCCCn1cnc(NC(N)=NCC(F)(F)F)n1,162 to 164
16,O=C(C=Cc1ccncc1)c1cccs1,150 to 152
17,CC1(C)C(=O)N(c2ccc(C#N)c(Cl)c2)C(=O)N1CCCCCN1C(=O)N(c2ccc(C#N)c(Cl)c2)C(=O)C1(C)C,166 to 167
18,CC(=O)N(C)c1cc(-c2ccnc3c(C(=O)c4cccs4)cnn23)ccc1F,165 to 167
19,Cc1cc(C)cc(-c2nnc(C#N)o2)c1,127
20,CC(=O)NCCNc1ccc(NCCNC(C)=O)c2c1C(=O)c1c(O)ccc(O)c1C2=O,273 to 274
21,CCCNc1ccc(-c2nc(=O)c3ccccc3s2)cn1,210 to 211

row,SMILES,melting point [°C]
1,COc1ccc(C#N)c(Cl)c1OC(C)=O,97 to 99
2,CC(C)OC1(C(=O)O)C=C(Cl)C=C(Cl)C1 (stereo not drawn),140 to 141
3,C=C(C)C(=O)Nc1cccc(O)c1,171 to 173
4,CCCc1nc2c(N)nc3cc(OCc4cscn4)ccc3c2s1,218 to 220
5,C[C@@H](CO)[C@](O)(Cn1cncn1)c1ccc(F)cc1F,93 to 95
6,COc1cccc(CSCCNC(=O)c2c(Cl)cccc2Cl)c1OC,108 to 110
7,Cn1cc(C2=NOCCO2)c(Cl)n1,112
8,Cc1cccc(NC(=O)NCC(=O)N(CC(=O)N(C)c2ccc(Cl)cc2)c2ccccc2)c1,160
9,COC(=O)CCc1ccc(OCc2cccc(-c3cccc(CO)c3)c2)cc1,185 to 188
10,N=C(N)NCCCOc1ccc2c(c1)CC(CCC(=O)O)C(=O)N2 (stereo not drawn),168 to 172
11,CCOC(=O)C(=CNc1ccc(OC)c(C)n1)C(=O)OCC,109 to 110
12,CCOC(=O)c1cnc2sccc2c1Sc1nnc(C)s1,93 to 94
13,NC(=O)CCCC1Cc2ccccc2C1,116 to 118
14,N#Cc1nc(C#Cc2ccccc2)c(C#Cc2ccccc2)nc1C#N,226 to 227
15,CC(CCN(C)c1ccc(Cl)cc1)NCC(O)c1ccc(O)c(C(N)=O)c1 (stereo not drawn),127 to 129
16,CC(C)(C)C(=O)Oc1ccc(OC(=O)C(C)(C)C)c(C(=O)OCc2ccccc2)c1,90.5 to 91.8
17,Cc1sc(Cc2ccccc2)c(-c2ccc(-c3ccc(OC(Cc4ccccc4)C(=O)O)cc3)cc2)c1C (stereo not drawn),142 to 144
18,Cc1cc(C(=O)NC2=NCCC2(c2ccccc2)c2ccccc2)[nH]n1,213 to 215
19,CCCCCCCCCOc1ccc(Cl)c(C(N)=O)c1F,75 to 77
20,CCCCCCCCC#CCC#CCC#CCSCC(=O)NCC,59

# Other lines, results leading:
row,melting point [°C],SMILES
1,58,COc1cc(CCN2CCN(c3nsc4ccccc34)CC2)c(NC(=O)C=C(C)C)cc1OC
2,193 to 194,Cc1ccc(-c2ccc(C(=O)Nc3ccc4cc(CN5CCCC5)cnc4c3C)cc2F)cc1
3,116 to 118,COc1ccc2cc(C(=O)CCCCC(=O)N(C)O)ccc2c1
4,75 to 77,CCOC(=O)c1noc(-c2ccc([N+](=O)[O-])cc2)n1
5,135 to 137,CCC(CC)n1ncn(-c2ccc(N3CCNCC3)cc2)c1=O
6,123,CCCCCCCNC(=O)Nc1ccccc1C(=O)NC1CCN(Cc2c(C(C)C)nc(C(C)C)c(COC)c2-c2ccc(F)cc2)CC1
7,160 to 162,CCCN(CCC)S(=O)(=O)c1cccc(C(=O)Nc2ccc(Br)cc2)c1
8,134 to 135,CC1(C)CC(=C(c2ccc(O)cc2)c2ccc(F)cc2)CC(C)(C)C1
9,185 to 195,CCCCOCCOc1ccc(-c2ccc3c(c2)C=C(C(=O)O)CCN3c2ccc(S(N)(=O)=O)cc2)cc1
10,213 to 214,CCOC(=O)c1sc(NC(=O)c2cc(-c3cccs3)ccc2O)nc1-c1ccccc1
11,177 to 179,CCOC(=O)Nc1cc(C(C)C(O)(Cn2cncn2)c2ccc(F)cc2F)ccn1 (stereo not drawn)
12,199 to 200,CC1(C)C(=O)Nc2ccc(F)cc2N1C(=O)N1CCCC1
13,137 to 139,CSC(SC)=C(C(=O)c1ccc(C(F)(F)F)cc1S(C)(=O)=O)C(=O)C1CC1
14,203,c1ccc(OCCNc2nc(Nc3cc(C4CC4)n[nH]3)c3ccccc3n2)cc1
15,137,CC(=O)N1c2ccc(N(C)C)cc2Sc2cc(N(C)C)ccc21
16,210 to 211,CC(C)CCOc1ccc(-n2cc(C(=O)O)cn2)cc1C#N
17,284 to 285,CS(=O)c1ccc(-c2coc3ccc(-c4nnc(N)o4)cc23)cc1 (stereo not drawn)
18,> 260,COc1ccc(-c2cnc3cc4cnn(CC(=O)O)c4cc3n2)cc1F
19,258 to 263,NC(=O)CCC(=O)Nc1c(C(=O)c2ccccc2)[nH]c2cc(Cl)ccc12

row,melting point [°C],SMILES
1,235 to 237,CC1=C(C(=O)OCCCl)C(c2cccc3c(=O)c(C)c(-c4ccccc4)oc23)C(C(=O)OC(C)C)=C(C)N1 (stereo not drawn)
2,90,COc1ccc(CN(C)C(=O)CCCc2ccc([N+](=O)[O-])cc2)cc1OC
3,276 to 278,O=C(NCc1ncc[nH]1)c1[nH]c2ccc(Cl)cc2c1S(=O)(=O)c1ccccc1
4,253 to 254,O=C1CNc2ccc(S(=O)(=O)Oc3ccccc3)cc2N1
5,180 to 184,CC(=O)Nc1cccc2c1CN(c1ccc3ccn(C)c3c1)C2=O
6,212 to 214,O=C(O)c1ccc(C(=O)/C=C/c2ccc(N3CCCC3)c(-c3cccs3)c2)cc1
7,125 to 128,CS(=O)(=O)c1ncnn1CC(O)(Cc1ccccc1Cl)C1(Cl)CC1 (stereo not drawn)
8,230 to 231,Cn1ncc2c1-c1c(Oc3cc4c(cc3[N+](=O)[O-])OCO4)sc(C(N)=O)c1CC2
9,88,CCCOCCOc1ccc(OCC(O)CNCCNC(=O)N2CCOCC2)cc1 (stereo not drawn)
10,75 to 76,COc1ccc(C(=O)OCc2ccc(C=O)cc2)cc1C(C)(C)C
11,91.5 to 93.5,O=C1c2c(-c3ccccc3)noc2CCC1CCCN1CCCCC1 (stereo not drawn)
12,56 to 58,CCc1cc2c(Sc3ccc(C)cc3)ncnc2s1
13,170 to 174,CC(C)OC(=O)N1CCC(c2ccc3nc(-c4ccc(S(C)(=O)=O)cc4F)oc3c2)CC1
14,198 to 199,CC(=O)CCc1nsc2ccc(-n3c(=O)cc(C(F)(F)F)n(C)c3=O)cc12
15,236 to 238,O=C(Nc1ccc([N+](=O)[O-])cc1)N1CCN(c2nc(-c3ccccc3)nc3ccccc23)CC1
16,164 to 166,Nc1ccc(C23CC(C2)C(=O)N(Cc2ccccc2)C3=O)cc1
17,166 to 167,COc1ccc2c(c1OC)CCC(NC(=O)C(F)(F)F)C2=O (stereo not drawn)
18,128,COc1cc(Nc2nccc(NC3CCCCC3)n2)cc(OC)c1OC
19,207,CC1=C(C(=O)OC(C)(C)C)C(c2ccccc2Cl)c2c[nH]nc2N1 (stereo not drawn)

row,melting point [°C],SMILES
1,197 to 199,O=C(NCc1cocn1)c1ccnc(N2CCN(Cc3ccc(F)cc3)C2=O)c1
2,228 to 230,COc1cc(OC)nc(NS(=O)(=O)c2ccccc2N(C)S(C)(=O)=O)n1
3,204,CCN(c1ccc(C(C)=O)cc1)c1nc(=O)c2cccnc2s1
4,158 to 159,COc1ccc(-c2ccc3c(n2)CCC(C)(C)C3=O)cc1
5,95 to 97,CCNC(=O)n1nc(Oc2ccc([N+](=O)[O-])c(C(F)(F)F)c2)cc1C
6,> 114,Cc1nc(C)c(Cl)c(NCc2ccc(Oc3ccc4ncc([N+](=O)[O-])n4n3)c(O)c2)n1
7,181 to 182,O=c1oc(-c2ccc(C#Cc3ccccc3)cc2)cc(O)c1SCCc1ccccc1
8,66 to 67,COC(=O)C(C(=O)OC)C(C#Cc1ccccc1)c1ccc(OC)c(OC2CCCC2)c1 (racemic)
9,69.5 to 70.5,CC(O)c1ccc(-c2ccc([N+](=O)[O-])cc2)o1 (stereo not drawn)
10,210 to 213,CC(=O)Nc1cc(Oc2ccc3c(C(=O)Nc4ccc(CN5CCN(C(C)C)CC5)c(C(F)(F)F)c4)cccc3c2)ncn1
11,> 250,COc1ccc(C(=O)Nc2cccnc2)c2c1oc1ccc(NC(C)=O)cc12
12,250 to 251,COc1cccc(C(=O)Nc2ccc(CN3C(=O)[C@H]4CCC[C@H]4N(C(=O)CN4C(=O)c5ccccc5C4=O)c4ccccc43)cc2)c1 (relative stereo)
13,218 to 220,COc1ccc(-c2cc3nc(N4CCOCC4)c4ccccc4c3nn2)cc1
14,190 to 191,CCc1nc2c(N)nc3ccc(OCc4ccccc4)cc3c2n1CCCCNC(=O)N1CCOCC1
15,158 to 167,CN(C)C(=S)Oc1ccc(S(=O)(=O)c2ccc(C#N)cc2)cc1
16,> 250,Cc1c(O)ccc2c(=O)cc(N3CCOCC3)oc12
17,82 to 84,CC(C)Oc1cc(CCCOc2ncccc2CC(=O)O)n(Cc2ccc(Cl)cc2OC(C)C)n1
18,146,COc1cc(N)c(Cl)cc1C(=O)NC1CCN(CCC(O)C(=O)c2ccc(F)cc2)CC1OC (stereo not drawn)
19,240 to 245,Cn1c(=O)c(-c2ccc(Cl)cc2Cl)cc2c3cc(-c4c[nH]nc4N)ccc3n(C)c21
